Active and inactive are the calls of the source. No cut-off for these calls is given here.
Columns and labels:
Ishikawa = assay: Antiproliferative activity against human Ishikawa cells at 20 uM incubated for 3 days by MTT assay relative to control; assay type: functional; conditions: 72 h, time 3 day
MCF7 [1] = assay: Antiproliferative activity against human MCF7 cells incubated for 5 days by MTT assay; assay type: functional, cell-based; conditions: MCF7, 120 h
MCF7 [2] = assay: Induction of ROS production in human MCF7 cells incubated for 3 to 24 hrs by immunofluorescence analysis; assay type: functional, cell-based; conditions: time 3-24 hrs
MCF7 [3] = assay: Induction of cell cycle arrest at G0/G1 phase in human MCF7 cells at 10 uM incubated for 24 hrs by PI/RNase staining based flow cytometry (reference value: 53.5 +/- 1.96 %); assay type: functional

| IC50 (MCF7 [1]) [nM] | SMILES | inhibition at 20 µM (Ishikawa) [%] | Activity (MCF7 [2]) | Activity (MCF7 [3]) [%] |
| --- | --- | --- | --- | --- |
| 3570 | CCc1ccccc1C(=O)c1cnc2cc(O)ccc2c1Oc1ccc(/C=C/C(=O)O)c(C)c1 | 13.4 |  |  |
| 1360 | O=C(O)/C=C/c1ccc(Oc2c(C(=O)c3ccc(OC(F)(F)F)cc3)cnc3cc(O)ccc23)cc1 | 20.4 |  |  |
| 1470 | O=C(O)/C=C/c1ccc(Oc2c(C(=O)c3ccc4occc4c3)cnc3cc(O)ccc23)cc1 | 13.3 |  |  |
| 370 | Cc1cc(Cl)ccc1C(=O)c1cnc2cc(O)ccc2c1Oc1ccc(/C=C/C(=O)O)cc1 | 24.9 |  |  |
| 670 | CCc1ccccc1C(=O)c1cnc2cc(O)ccc2c1Oc1ccc(/C=C/C(=O)O)cc1F | 4.11 |  |  |
| 580 | CC(C)c1ccccc1C(=O)c1cnc2cc(O)ccc2c1Oc1ccc(/C=C/C(=O)O)cc1 | 23.8 |  |  |
| 450 | Cc1ccc(C(=O)c2cnc3cc(O)ccc3c2Oc2ccc(/C=C/C(=O)O)cc2)c(C)c1 | -0.04 |  |  |
| 2420 | O=C(O)/C=C/c1ccc(Oc2c(C(=O)c3cccc(F)c3)cnc3cc(O)ccc23)cc1 | 26.4 |  |  |
| 590 | CCc1ccccc1C(=O)c1cnc2cc(O)ccc2c1Oc1cc(C)c(/C=C/C(=O)O)c(C)c1 | 17.3 |  |  |
| 410 | Cc1cc(F)cc(C)c1C(=O)c1cnc2cc(O)ccc2c1Oc1ccc(/C=C/C(=O)O)cc1 | 35.8 |  |  |
| 14000 | CCc1ccccc1C(=O)c1cnc2cc(O)ccc2c1Oc1ccc(/C=C/C(=O)O)cc1OC | 5.03 |  |  |
| 370 | O=C(O)/C=C/c1ccc(Oc2c(C(=O)c3ccccc3C(F)(F)F)cnc3cc(O)ccc23)cc1 | 27.5 |  |  |
| 7170 | O=C(O)/C=C/c1ccc(Oc2c(C(=O)c3cccs3)cnc3cc(O)ccc23)cc1 | 10.4 |  |  |

Second part, the molecule before the results:

| SMILES | IC50 (MCF7 [1]) [nM] | inhibition at 20 µM (Ishikawa) [%] | Activity (MCF7 [2]) | Activity (MCF7 [3]) [%] |
| --- | --- | --- | --- | --- |
| Cc1cccc(C)c1C(=O)c1cnc2cc(O)ccc2c1Oc1ccc(/C=C/C(=O)O)cc1 | 930 | 23.1 |  |  |
| O=C(O)/C=C/c1ccc(Oc2c(C(=O)c3ccccc3)cnc3cc(O)ccc23)cc1 | 1670 | 11.8 |  |  |
| Cc1cc(C)cc(C(=O)c2cnc3cc(O)ccc3c2Oc2ccc(/C=C/C(=O)O)cc2)c1 | 4800 | 30.9 |  |  |
| C[C@]12CC[C@@H]3c4ccc(O)cc4CC[C@H]3[C@@H]1CC[C@@H]2O |  |  | inactive |  |
| O=C(O)/C=C/c1ccc(Oc2c(C(=O)c3ccc(C(F)(F)F)cc3)cnc3cc(O)ccc23)cc1 | 690 | -4.35 |  |  |
| CCc1ccccc1C(=O)c1cnc2cc(O)ccc2c1Oc1c(C)cc(/C=C/C(=O)O)cc1C |  | 11.5 |  |  |
| CC/C(=C(\c1ccccc1)c1ccc(OCCN(C)C)cc1)c1ccccc1 [TAMOXIFEN] | 1560 | 86.5 | inactive | 67.6 |
| COc1ccc(C(=O)c2cnc3cc(O)ccc3c2Oc2ccc(/C=C/C(=O)O)cc2)cc1 | 3090 | 61.2 |  |  |
| Cc1cc(F)ccc1C(=O)c1cnc2cc(O)ccc2c1Oc1ccc(/C=C/C(=O)O)cc1 | 420 | 15.1 |  |  |
| O=C(O)/C=C/c1ccc(Oc2c(C(=O)c3ccc(F)cc3)cnc3cc(O)ccc23)cc1 | 4870 | 12.5 |  |  |

Reference: ChEMBL document CHEMBL5584239, “Discovery of novel quinoline scaffold selective estrogen receptor degraders (SERDs) for treatment of ER positive breast cancer with enhanced antiproliferative bioactivity through immunogenic cell death (ICD) effects” (Eur J Med Chem, 2024)
